Data as given in PMC10731459, “A SARS-CoV-2 NSP7 homolog of a Treg epitope suppresses CD4+ and CD8+ T cell memory responses” (Frontiers in Immunology, 2023).
Read-outs that look alike come from different tables or passages of the source. Where no end group is shown, it is not given here.

Tests used:
[1] = target: T1, HLA-DRB1*01:01 (Homo sapiens, UniProt P01903+P01911, A100R/D57E/F55L/F60I/F76Y/I96L/L162R/M171V/P40L/Q125E/R42F/V115G/Y59C); assay: HLA binding assay, DRB1*01:01
T1 construct: purchased Benaroya Research Institute, Seattle, Washington

[2] = target: T2, HLA-DRB1*03:01 (Homo sapiens, UniProt P01903+P01911, A100K/A102G/A103R/A169T/F55Y/I96L/K41T/L162R/M171V/P40S/Q125H/Q178H/Q39Y/R42S/S66N/T106N/T262R/W38E/Y61H); assay: HLA binding assay, DRB1*03:01
T2 construct: purchased Benaroya Research Institute, Seattle, Washington

[3] = target: T3, HLA-DRB1*04:01 (Homo sapiens, UniProt P01903+P01911, A100K/A169T/F76Y/I96L/K127E/L162R/M171V/N62H/P40V/Q125Y/R42H/S133A/S149N/S66Y/V115G/V209L/W38E); assay: HLA binding assay, DRB1*04:01
T3 construct: purchased Benaroya Research Institute, Seattle, Washington

[4] = target: HLA-DRB1*07:01 (Homo sapiens, UniProt P01903+P01911, A100R/A102G/A103Q/D57E/D86V/E43K/F76Y/K127E/L162R/M171V/P40G/Q125H/Q99D/R33Q/R42Y/R54Q/S133A/S66F/T210M/V115G/Y107V/Y59L/Y89S); assay: HLA binding assay, DRB1*07:01
[5] = target: HLA-DRB1*09:01 (Homo sapiens, UniProt P01903+P01911, A100R/A103E/D57H/D86V/F55Y/F60I/F76Y/I96F/K127E/L162R/M171V/P40D/Q125H/Q99R/R33Q/R42F/S133A/S66N/T210M/V115G/W38K/Y107V/Y59G/Y89S); assay: HLA binding assay, DRB1*09:01
[6] = target: HLA-DRB1*11:01 (Homo sapiens, UniProt P01903+P01911, A100R/A169T/A87E/I96F/K41T/L162R/M171V/P40S/Q125H/Q178H/Q39Y/Q99D/R42S/S66Y/T262R/V115G/W38E); assay: HLA binding assay, DRB1*11:01
HLA-DRB1*11:01, sequence (P01903 26-254 limits assumed, other chains not shown): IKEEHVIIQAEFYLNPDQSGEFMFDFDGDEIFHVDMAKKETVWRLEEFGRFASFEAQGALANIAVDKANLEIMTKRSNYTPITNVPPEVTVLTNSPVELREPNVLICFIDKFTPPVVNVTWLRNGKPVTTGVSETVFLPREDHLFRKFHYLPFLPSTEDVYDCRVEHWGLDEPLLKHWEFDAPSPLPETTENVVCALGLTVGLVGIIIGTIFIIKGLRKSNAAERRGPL

[7] = target: T4, HLA-DRB1*15:01 (Homo sapiens, UniProt P01903+P01911); assay: biochemical; type: binding
T4 construct: purchased Benaroya Research Institute, Seattle, Washington

[8] = tested on: human CD4+ T cells; type: cell-based

EKMVSLLSVLLSM [NSP7-289] gave an IC50 ([1]; read-out: HLA-DRB1 (IC50) *0101) of 0.27 µM, an IC50 ([2]; read-out: HLA-DRB1 (IC50) *0301) of 31 µM and an IC50 ([3]; read-out: HLA-DRB1 (IC50) *0401) of 28.8 µM. The IC50 ([4]; read-out: HLA-DRB1 (IC50) *0701) was 2.68 µM, the IC50 ([5]; read-out: HLA-DRB1 (IC50) *0901) was 7.79 µM and the IC50 ([6]; read-out: HLA-DRB1 (IC50) *1101) was 3.24 µM. It also gave an IC50 ([7]; read-out: HLA-DRB1 (IC50) *1501) of 0.2 µM.
Work on KSTYRVVSVLTVLHQD-NH2 [Tregitope 289z] yielded an IC50 [1] of 0.16 µM, an IC50 [2] of 8.99 µM and an IC50 [3] of 0.65 µM. The IC50 [4] was 0.2 µM, the IC50 [5] was 0.22 µM and the IC50 [6] was 0.48 µM. The IC50 [7] was 2.52 µM.
For “TT: TT (Astarte Biologics, cat no. 1002), stimulating antigen”, the “increase of CD4+ T cell proliferation by TT stimulation” value [8] was “roughly 20 fold”.
